Test results reported in ChEMBL document CHEMBL3991601, “The target landscape of clinical kinase drugs” (Science, 2017).
Active and inactive are the calls of the source. Rule as the data show it, for most assays here: actives have a measured Kd and inactives only a lower limit.

What was measured:
[1] = biological target: T1, Phosphorylase b kinase gamma catalytic chain, liver/testis isoform (Homo sapiens, UniProt P15735)
T1 sequence (P15735 whole entry): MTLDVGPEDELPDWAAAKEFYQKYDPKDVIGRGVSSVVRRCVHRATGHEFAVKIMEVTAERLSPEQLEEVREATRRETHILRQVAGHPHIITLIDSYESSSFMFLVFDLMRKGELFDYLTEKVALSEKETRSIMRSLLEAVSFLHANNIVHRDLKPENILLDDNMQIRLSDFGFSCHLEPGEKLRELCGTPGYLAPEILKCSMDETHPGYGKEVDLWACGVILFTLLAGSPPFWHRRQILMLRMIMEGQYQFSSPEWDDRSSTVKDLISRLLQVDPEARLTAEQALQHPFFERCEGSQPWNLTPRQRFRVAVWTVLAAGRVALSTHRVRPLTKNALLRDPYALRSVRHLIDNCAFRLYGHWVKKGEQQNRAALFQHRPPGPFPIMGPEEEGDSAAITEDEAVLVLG

[2] = biological target: T2, Discoidin domain-containing receptor 2 (Homo sapiens, UniProt Q16832)
T2 sequence (Q16832 whole entry): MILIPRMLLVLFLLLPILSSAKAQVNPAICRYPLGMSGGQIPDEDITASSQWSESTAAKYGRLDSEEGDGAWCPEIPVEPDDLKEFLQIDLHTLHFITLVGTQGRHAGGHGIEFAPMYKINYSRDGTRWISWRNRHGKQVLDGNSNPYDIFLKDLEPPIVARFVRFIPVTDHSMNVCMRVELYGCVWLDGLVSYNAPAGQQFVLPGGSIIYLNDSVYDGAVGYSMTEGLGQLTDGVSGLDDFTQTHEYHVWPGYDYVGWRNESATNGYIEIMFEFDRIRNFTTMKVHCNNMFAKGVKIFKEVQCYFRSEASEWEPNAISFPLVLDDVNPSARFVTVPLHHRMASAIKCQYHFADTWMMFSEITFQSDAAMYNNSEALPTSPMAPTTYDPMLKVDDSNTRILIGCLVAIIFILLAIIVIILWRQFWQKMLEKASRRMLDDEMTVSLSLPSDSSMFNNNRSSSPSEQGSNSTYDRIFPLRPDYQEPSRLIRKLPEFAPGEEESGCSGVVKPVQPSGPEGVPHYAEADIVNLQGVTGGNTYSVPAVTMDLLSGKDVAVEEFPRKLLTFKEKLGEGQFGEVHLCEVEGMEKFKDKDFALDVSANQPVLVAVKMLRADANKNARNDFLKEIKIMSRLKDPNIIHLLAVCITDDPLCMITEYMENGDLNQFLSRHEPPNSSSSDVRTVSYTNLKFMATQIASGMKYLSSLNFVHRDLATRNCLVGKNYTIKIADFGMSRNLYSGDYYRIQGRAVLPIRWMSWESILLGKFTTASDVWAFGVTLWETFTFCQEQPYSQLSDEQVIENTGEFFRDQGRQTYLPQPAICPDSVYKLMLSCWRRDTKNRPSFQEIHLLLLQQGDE

[3] = biological target: Serine/threonine-protein kinase N1 (Homo sapiens, UniProt Q16512)
GTP-binding protein 4 = GTP-binding protein 4 (Homo sapiens, UniProt Q9BZE4)
[4] = biological target: T3, Serine/threonine-protein kinase Nek2 (Homo sapiens, UniProt P51955)
T3 sequence (P51955 whole entry): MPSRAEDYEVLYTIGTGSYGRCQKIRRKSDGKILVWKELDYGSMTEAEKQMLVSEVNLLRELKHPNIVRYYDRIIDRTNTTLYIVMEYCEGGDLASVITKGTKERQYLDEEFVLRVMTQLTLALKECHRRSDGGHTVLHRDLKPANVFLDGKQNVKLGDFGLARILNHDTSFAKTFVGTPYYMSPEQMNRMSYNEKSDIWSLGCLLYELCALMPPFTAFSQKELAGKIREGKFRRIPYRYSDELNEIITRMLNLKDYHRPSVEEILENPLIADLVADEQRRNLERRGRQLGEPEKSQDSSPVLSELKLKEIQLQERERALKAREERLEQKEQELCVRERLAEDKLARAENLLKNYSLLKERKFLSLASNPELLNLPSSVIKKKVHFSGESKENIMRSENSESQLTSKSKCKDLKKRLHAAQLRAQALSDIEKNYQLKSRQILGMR

ADP/ATP translocase 2 = biological target: T4, ADP/ATP translocase 2 (Homo sapiens, UniProt P05141)
T4 sequence (P05141 whole entry): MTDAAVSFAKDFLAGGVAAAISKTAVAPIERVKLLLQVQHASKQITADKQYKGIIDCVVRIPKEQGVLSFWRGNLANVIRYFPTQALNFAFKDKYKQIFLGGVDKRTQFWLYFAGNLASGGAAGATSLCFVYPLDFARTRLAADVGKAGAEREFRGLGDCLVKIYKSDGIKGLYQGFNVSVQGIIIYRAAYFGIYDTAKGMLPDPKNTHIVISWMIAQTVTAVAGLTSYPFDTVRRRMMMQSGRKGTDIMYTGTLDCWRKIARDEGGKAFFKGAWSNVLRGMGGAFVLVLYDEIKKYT

[5] = biological target: Cyclin-dependent kinase 13 (Homo sapiens, UniProt Q14004)
TGF-beta receptor type-1 = biological target: T5, TGF-beta receptor type-1 (Homo sapiens, UniProt P36897)
T5 sequence (P36897 whole entry): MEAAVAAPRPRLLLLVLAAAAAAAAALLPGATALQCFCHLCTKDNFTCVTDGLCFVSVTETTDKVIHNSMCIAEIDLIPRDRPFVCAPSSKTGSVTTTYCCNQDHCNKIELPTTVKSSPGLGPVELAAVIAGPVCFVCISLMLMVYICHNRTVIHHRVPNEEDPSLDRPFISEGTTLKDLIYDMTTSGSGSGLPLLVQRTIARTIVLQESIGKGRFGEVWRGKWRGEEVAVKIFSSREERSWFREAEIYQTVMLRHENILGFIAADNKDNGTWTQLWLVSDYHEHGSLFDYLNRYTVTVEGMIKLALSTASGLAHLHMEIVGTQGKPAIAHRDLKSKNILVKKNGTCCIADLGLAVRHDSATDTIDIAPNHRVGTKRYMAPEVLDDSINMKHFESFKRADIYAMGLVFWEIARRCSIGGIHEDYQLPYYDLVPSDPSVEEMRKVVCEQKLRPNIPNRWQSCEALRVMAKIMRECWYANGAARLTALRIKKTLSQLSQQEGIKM

[6] = biological target: GTP-binding nuclear protein Ran (Homo sapiens, UniProt P62826)
Activated CDC42 kinase 1 = Activated CDC42 kinase 1 (Homo sapiens, UniProt Q07912)
Midasin = Midasin (Homo sapiens, UniProt Q9NU22)
Also: in the data inactive means no Kd found up to 30 µM.

Sequence of Cyclin-dependent kinase 13 (Q14004 whole entry): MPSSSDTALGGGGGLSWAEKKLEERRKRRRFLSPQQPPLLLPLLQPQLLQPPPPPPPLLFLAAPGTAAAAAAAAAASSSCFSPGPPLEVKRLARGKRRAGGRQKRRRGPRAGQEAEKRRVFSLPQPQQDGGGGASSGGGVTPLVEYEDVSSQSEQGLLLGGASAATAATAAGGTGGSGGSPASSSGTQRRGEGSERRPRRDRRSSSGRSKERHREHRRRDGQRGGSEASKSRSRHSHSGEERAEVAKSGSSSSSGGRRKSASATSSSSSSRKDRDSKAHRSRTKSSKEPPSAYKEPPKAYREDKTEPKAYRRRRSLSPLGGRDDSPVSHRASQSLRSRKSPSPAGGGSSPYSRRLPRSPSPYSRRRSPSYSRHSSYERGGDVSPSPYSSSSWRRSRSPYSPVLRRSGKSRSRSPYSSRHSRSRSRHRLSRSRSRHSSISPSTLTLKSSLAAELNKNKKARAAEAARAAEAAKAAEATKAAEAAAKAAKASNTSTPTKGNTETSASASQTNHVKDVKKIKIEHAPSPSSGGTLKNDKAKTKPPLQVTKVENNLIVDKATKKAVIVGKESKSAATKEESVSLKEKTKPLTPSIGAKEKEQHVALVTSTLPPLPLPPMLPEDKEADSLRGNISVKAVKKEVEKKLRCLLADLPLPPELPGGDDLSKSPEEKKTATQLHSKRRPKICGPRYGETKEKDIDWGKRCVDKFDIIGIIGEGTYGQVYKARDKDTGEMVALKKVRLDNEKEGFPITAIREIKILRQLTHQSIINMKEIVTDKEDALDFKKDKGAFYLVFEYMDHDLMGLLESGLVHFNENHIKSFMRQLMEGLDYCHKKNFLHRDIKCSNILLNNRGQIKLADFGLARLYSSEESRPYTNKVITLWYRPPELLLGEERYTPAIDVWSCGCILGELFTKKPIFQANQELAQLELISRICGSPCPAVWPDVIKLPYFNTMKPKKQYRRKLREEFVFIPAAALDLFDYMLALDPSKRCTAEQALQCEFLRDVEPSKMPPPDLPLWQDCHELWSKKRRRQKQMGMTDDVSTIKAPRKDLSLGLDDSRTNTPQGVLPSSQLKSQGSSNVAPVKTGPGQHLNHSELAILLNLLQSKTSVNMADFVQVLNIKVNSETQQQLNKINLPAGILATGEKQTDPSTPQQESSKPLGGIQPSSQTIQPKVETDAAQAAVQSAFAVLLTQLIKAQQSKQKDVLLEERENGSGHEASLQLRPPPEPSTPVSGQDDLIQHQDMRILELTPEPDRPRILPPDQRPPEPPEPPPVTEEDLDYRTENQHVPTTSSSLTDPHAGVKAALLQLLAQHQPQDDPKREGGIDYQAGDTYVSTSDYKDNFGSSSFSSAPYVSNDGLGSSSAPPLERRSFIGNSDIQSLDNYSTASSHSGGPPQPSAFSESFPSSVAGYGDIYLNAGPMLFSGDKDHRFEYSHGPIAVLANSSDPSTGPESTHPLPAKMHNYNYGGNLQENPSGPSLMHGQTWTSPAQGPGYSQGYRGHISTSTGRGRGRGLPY
Sequence of Serine/threonine-protein kinase N1 (Q16512 whole entry): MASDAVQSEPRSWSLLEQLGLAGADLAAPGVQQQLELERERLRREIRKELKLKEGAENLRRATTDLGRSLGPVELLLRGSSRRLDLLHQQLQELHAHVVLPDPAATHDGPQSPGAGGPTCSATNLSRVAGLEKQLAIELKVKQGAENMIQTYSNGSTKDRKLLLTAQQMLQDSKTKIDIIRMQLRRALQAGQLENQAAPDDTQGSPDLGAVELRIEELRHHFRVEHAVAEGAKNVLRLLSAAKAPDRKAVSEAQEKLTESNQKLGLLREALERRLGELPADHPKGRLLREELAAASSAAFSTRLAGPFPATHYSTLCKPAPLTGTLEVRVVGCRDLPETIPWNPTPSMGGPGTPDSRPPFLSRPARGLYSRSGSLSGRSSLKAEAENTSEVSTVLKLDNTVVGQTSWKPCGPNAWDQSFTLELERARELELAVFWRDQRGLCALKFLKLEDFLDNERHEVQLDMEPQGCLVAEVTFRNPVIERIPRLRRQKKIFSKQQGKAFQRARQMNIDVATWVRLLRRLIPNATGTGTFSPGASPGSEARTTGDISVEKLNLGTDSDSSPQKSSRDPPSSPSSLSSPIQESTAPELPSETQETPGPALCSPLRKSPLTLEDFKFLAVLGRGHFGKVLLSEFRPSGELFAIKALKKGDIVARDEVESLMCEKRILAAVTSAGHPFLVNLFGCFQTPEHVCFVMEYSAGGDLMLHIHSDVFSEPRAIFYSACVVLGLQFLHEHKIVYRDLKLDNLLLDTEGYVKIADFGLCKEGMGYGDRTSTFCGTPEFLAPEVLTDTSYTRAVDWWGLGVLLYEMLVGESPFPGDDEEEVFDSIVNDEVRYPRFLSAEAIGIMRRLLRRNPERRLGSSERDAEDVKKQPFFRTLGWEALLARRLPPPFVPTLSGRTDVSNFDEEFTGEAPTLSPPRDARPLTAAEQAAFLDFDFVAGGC
Sequence of Activated CDC42 kinase 1 (Q07912 whole entry): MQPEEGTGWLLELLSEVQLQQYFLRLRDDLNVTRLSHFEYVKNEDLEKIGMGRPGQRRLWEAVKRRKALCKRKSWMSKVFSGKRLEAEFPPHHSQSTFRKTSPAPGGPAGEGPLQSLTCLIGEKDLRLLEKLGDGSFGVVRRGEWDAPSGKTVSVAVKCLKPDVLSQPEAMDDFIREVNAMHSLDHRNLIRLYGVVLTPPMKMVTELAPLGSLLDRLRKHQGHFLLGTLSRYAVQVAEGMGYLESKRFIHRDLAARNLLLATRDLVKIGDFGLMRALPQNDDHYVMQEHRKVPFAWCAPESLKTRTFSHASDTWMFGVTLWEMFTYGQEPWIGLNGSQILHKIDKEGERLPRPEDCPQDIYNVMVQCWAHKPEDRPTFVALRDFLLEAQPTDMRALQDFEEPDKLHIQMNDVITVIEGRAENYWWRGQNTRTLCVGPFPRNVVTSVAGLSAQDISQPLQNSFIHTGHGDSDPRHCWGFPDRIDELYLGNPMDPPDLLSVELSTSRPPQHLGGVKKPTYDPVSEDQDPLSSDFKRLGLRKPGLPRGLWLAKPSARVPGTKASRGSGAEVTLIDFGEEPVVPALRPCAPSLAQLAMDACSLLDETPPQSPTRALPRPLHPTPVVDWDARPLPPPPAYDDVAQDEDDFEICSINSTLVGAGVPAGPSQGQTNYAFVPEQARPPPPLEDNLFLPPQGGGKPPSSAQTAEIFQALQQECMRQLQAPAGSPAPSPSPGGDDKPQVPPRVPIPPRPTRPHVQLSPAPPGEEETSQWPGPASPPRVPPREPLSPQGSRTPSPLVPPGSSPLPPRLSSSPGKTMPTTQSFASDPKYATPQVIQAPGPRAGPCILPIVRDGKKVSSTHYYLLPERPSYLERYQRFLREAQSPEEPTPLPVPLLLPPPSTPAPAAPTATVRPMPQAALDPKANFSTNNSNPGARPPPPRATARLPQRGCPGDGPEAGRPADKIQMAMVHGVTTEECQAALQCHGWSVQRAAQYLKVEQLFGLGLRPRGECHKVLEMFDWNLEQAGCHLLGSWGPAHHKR

Row | SMILES | Kd [1] | Kd [2] | Kd [3] | Kd (GTP-binding protein 4) | Kd [4] | Kd (ADP/ATP translocase 2) | Kd [5] | Kd (TGF-beta receptor type-1) | Kd [6] | Kd (Activated CDC42 kinase 1) | Kd (Midasin)
1 | Cc1nc2cc(-c3nn(C(C)C)c4ncnc(N)c34)ccc2o1 | > 30 µM (inactive) | 0.139 µM (active) | > 30 µM (inactive) | > 30 µM (inactive) | > 30 µM (inactive) | > 30 µM (inactive) | > 30 µM (inactive) | 2.47 µM (active) | > 30 µM (inactive) | > 30 µM (inactive) | > 30 µM (inactive)
2 | CO[C@H]1C[C@@H]2CC[C@@H](C)[C@@](O)(O2)C(=O)C(=O)N2CCCC[C@H]2C(=O)O[C@H]([C@H](C)C[C@@H]2CC[C@@H](OP(C)(C)=O)[C@H](OC)C2)CC(=O)[C@H](C)/C=C(\C)[C@@H](O)[C@@H](OC)C(=O)[C@H](C)C[C@H](C)/C=C/C=C/C=C/1C [RIDAFOROLIMUS] | > 30 µM (inactive) | > 30 µM (inactive) | > 30 µM (inactive) | > 30 µM (inactive) | > 30 µM (inactive) | > 30 µM (inactive) | > 30 µM (inactive) | > 30 µM (inactive) | > 30 µM (inactive) | > 30 µM (inactive) | > 30 µM (inactive)
3 | COCC(=O)NC/C=C/c1ccc2ncnc(Nc3ccc(Oc4ccc(C)nc4)c(C)c3)c2c1 [CP-724714] | > 30 µM (inactive) | > 30 µM (inactive) | > 30 µM (inactive) | > 30 µM (inactive) | > 30 µM (inactive) | > 30 µM (inactive) | > 30 µM (inactive) | > 30 µM (inactive) | > 30 µM (inactive) | > 30 µM (inactive) | > 30 µM (inactive)
4 | C[C@H]1CNCCCN1S(=O)(=O)c1cccc2cncc(F)c12 | > 30 µM (inactive) | > 30 µM (inactive) | 0.416 µM (active) |  | > 30 µM (inactive) | > 30 µM (inactive) | > 30 µM (inactive) | > 30 µM (inactive) | > 30 µM (inactive) | > 30 µM (inactive) | > 30 µM (inactive)
5 | COc1cc([C@@H]2c3cc4c(cc3[C@H](O)[C@H]3COC(=O)[C@@H]23)OCO4)cc(OC)c1OC [AXL-1717] | > 30 µM (inactive) | > 30 µM (inactive) | > 30 µM (inactive) | > 30 µM (inactive) | > 30 µM (inactive) | > 30 µM (inactive) |  | > 30 µM (inactive) | > 30 µM (inactive) | > 30 µM (inactive) | > 30 µM (inactive)
6 | Cc1csc(-c2nnc(Nc3ccc(Oc4ncccc4-c4ccnc(N)n4)cc3)c3ccccc23)c1 [AMG-900] | > 30 µM (inactive) | 0.298 µM (active) | > 30 µM (inactive) | > 30 µM (inactive) | > 30 µM (inactive) | > 30 µM (inactive) | 2.51 µM | > 30 µM (inactive) | > 30 µM (inactive) | > 30 µM (inactive) | 
7 | Nc1ncnc2c1c(-c1cccc(OCc3ccccc3)c1)cn2[C@H]1C[C@@H](CN2CCC2)C1 [AEW-541] | > 30 µM (inactive) | > 30 µM (inactive) | > 30 µM (inactive) |  | > 30 µM (inactive) | > 30 µM (inactive) | > 30 µM (inactive) | > 30 µM (inactive) | > 30 µM (inactive) | > 30 µM (inactive) | > 30 µM (inactive)
